# US4405743A, “Pyrazolylpyrimidine derivatives” (Hokko Chemical Industry Co., Ltd., priority 1981, dated 1983)
# Read-outs that look alike come from different tables or passages of the source.
# Experiments:
# cucumber plant = conditions: in vivo
# rice plant [1] = conditions: blast curative test, 200 ppm
# Pyricularia oryzae [2] = type: in vivo, Pyricularia oryzae on rice plant (variety: Asahi); conditions: rice blast, curative treatment; sprayed liquid 200 ppm; 5 days after spraying
# Pyricularia oryzae [3] = type: in vivo, Pyricularia oryzae on rice plant (variety: Asahi); conditions: rice blast, prevention; 200 ppm; 5 days after inoculation
# Cochliobolus miyabeanus [4] = assay: Effect of controlling rice brown spot, Experimental Example 3; type: in vivo, Cochliobolus miyabeanus on rice plant (variety: Asahi); conditions: sprayed liquid 500 ppm, 5 days after inoculation
# Sphaerotheca friliginea = assay: Effect of controlling cucumber powdery mildew, Experimental Example 4; type: in vivo; conditions: sprayed liquid 200 ppm, 10 days after inoculation
# Experimental: 10 ml of each of test liquids diluted to a predetermined concentration was sprayed over seedlings of a cucumber plant (variety: Sagami Hanpaku) grown up to the first leaf stage which has been soil cultured in an unglazed pot with a diameter of 9 cm in a green house. After allowing to stand overnight, the seedlings were sprayed for inoculation with a spore suspension of Sphaerotheca friliginea. Ten days after the inoculation, the rate of a lesion area (%) was checked and a control value was evaluated from the following equation. The degree of chemical injury against a cucumber plant was determined in the same manner as in Experimental Example.
# rice plant [5] = conditions: blast prevention test, 200 ppm
# rice plant [6] = conditions: in vivo
# Phoma lingam = assay: Antimicrobial activity (mycelium growth inhibition, PDA medium); type: cell-based; conditions: Plenodomus lingam, 24° C., read-out: ED50 value
# Experimental: (§1) Experimental Example 5 (Test for Antimicrobial Activity Against Various Plant Phathogenic Fungi)
# (§2) 1 ml of an acetone solution of each of test compounds and 20 ml of the PDA medium (50° C.) to prepare media containing the chemical in different concentrations, followed by charging into a petri dish with a diameter of 9 cm where it was solidified flat. On the central portion of the chemical-containing medium was inoculated a fungus-containing medium a piece of ager black-containing mycelia which was obtained by punching by means of a cork borer the tip portion of mycelia of each test fungus which had been cultured in advance in the PDA medium, followed by cultivating at 24° C. Two to six days after the cultivation, the diameter of the mycelia was measured and mycelium growth inhibiting rate was calculated from a comparison with that of a non-treated plot. The mycelium growth inhibiting rate was plotted on a logarithmic probability paper to determine an ED50 value.
# [7] = system: Helminthosporium gramineum; assay: as above; type: cell-based; conditions: 24° C., read-out: ED50 value
# Experimental: as §1, §2
# Curvularia sp. = assay: as above; type: cell-based; conditions: 24° C., read-out: ED50 value
# Experimental: as §1, §2
# Alternaria padwikii = assay: as above; type: cell-based; conditions: 24° C., read-out: ED50 value
# Experimental: as §1, §2
# Endothia parasitica = assay: as above; type: cell-based; conditions: Cryphonectria parasitica, 24° C., read-out: ED50 value
# Experimental: as §1, §2
# Botrytis cinerea = assay: as above; type: cell-based; conditions: 24° C., read-out: ED50 value
# Experimental: as §1, §2
# Sclerotinia fructigena = assay: as above; type: cell-based; conditions: 24° C., read-out: ED50 value
# Experimental: as §1, §2
# Mycosphaerella melonis = assay: as above; type: cell-based; conditions: 24° C., read-out: ED50 value
# Experimental: as §1, §2
# Diaporthe citri = assay: as above; type: cell-based; conditions: 24° C., read-out: ED50 value
# Experimental: as §1, §2
# Glomerella cingulata = assay: as above; type: cell-based; conditions: Colletotrichum gloeosporioides, 24° C., read-out: ED50 value
# Experimental: as §1, §2
# Sclerotinia sclerotiorum = assay: as above; type: cell-based; conditions: 24° C., read-out: ED50 value
# Experimental: as §1, §2
# Pellicularia sasakii = assay: as above; type: cell-based; conditions: 24° C., read-out: ED50 value
# Experimental: as §1, §2
# Fusarium nivale = assay: as above; type: cell-based; conditions: Microdochium nivale, 24° C., read-out: ED50 value
# Experimental: as §1, §2
# Penicillium digitatum = assay: as above; type: cell-based; conditions: 24° C., read-out: ED50 value
# Experimental: as §1, §2
# Phizoctonia solani = assay: as above; type: cell-based; conditions: 24° C., read-out: ED50 value
# Experimental: as §1, §2
# Cochliobolus miyabeanus [8] = assay: as above; type: cell-based; conditions: Bipolaris oryzae, read-out: ED50 value
# Pyricularia oryzae [9] = assay: microbe, parasite or virus in culture; type: cell-based; conditions: read-out: ED50 value
Structure (SMILES),Degree of chemical injury (cucumber plant),Degree of chemical injury (rice plant [1]),Control Value (Pyricularia oryzae [2]) [%],Control Value (Pyricularia oryzae [3]) [%],Control Value (Cochliobolus miyabeanus [4]) [%],Control Value (Sphaerotheca friliginea) [%],Degree of chemical injury (rice plant [5]),Degree of chemical injury (rice plant [6]),IC50 (Phoma lingam) [µg/mL],IC50 [7] [µg/mL],IC50 (Curvularia sp.) [µg/mL],IC50 (Alternaria padwikii) [µg/mL],IC50 (Endothia parasitica) [µg/mL],IC50 (Botrytis cinerea) [µg/mL],IC50 (Sclerotinia fructigena) [µg/mL],IC50 (Mycosphaerella melonis) [µg/mL],IC50 (Diaporthe citri) [µg/mL],IC50 (Glomerella cingulata) [µg/mL],IC50 (Sclerotinia sclerotiorum) [µg/mL],IC50 (Pellicularia sasakii) [µg/mL],other results
Cc1cc(C)n(-c2nccc(Sc3ccccc3)n2)n1 [Compound 4],0,0,100,100,85,90,0,0,2.1,2.4,0.7,1.2,1.9,6.5,0.4,5.2,2.7,4.1,3.2,1.2,IC50 (Fusarium nivale): 5.3 µg/mL; IC50 (Penicillium digitatum): 1.3 µg/mL; IC50 (Phizoctonia solani): 1.1 µg/mL; IC50 (Cochliobolus miyabeanus [8]): 4.6 µg/mL; IC50 (Pyricularia oryzae [9]): 0.1 µg/mL
CCCCc1c(C)nc(-n2nc(C)cc2C)nc1SCC [Compound 42],0,0,100,100,100,92,0,0,3.2,5.2,1.4,0.7,3.8,3.7,2.1,0.9,2.7,4,5.2,2,IC50 (Fusarium nivale): 2 µg/mL; IC50 (Penicillium digitatum): 2 µg/mL; IC50 (Phizoctonia solani): 1.3 µg/mL; IC50 (Cochliobolus miyabeanus [8]): 1.8 µg/mL; IC50 (Pyricularia oryzae [9]): 0.02 µg/mL
Cc1cc(C)n(-c2ncc(C)c(Sc3ccccc3)n2)n1 [Compound 35],0,0,95,84,92,100,0,0,4.6,6.3,1.8,1,6.8,9.6,0.7,2,4.6,9.6,6.1,1.3,IC50 (Fusarium nivale): 2.6 µg/mL; IC50 (Penicillium digitatum): 0.8 µg/mL; IC50 (Phizoctonia solani): 2.8 µg/mL; IC50 (Cochliobolus miyabeanus [8]): 4.3 µg/mL; IC50 (Pyricularia oryzae [9]): 0.2 µg/mL
Cc1ccc(Oc2cc(C)nc(-n3nc(C)cc3C)n2)c(C)c1 [Compound 27],,0,100,100,,,0,,3.7,3.6,1.6,1.9,6.3,9.8,1.4,4.6,2.9,6.7,4.8,1,IC50 (Fusarium nivale): 2.8 µg/mL; IC50 (Penicillium digitatum): 1.2 µg/mL; IC50 (Phizoctonia solani): 1.1 µg/mL; IC50 (Cochliobolus miyabeanus [8]): 2.2 µg/mL; IC50 (Pyricularia oryzae [9]): 0.02 µg/mL
CCOc1nc(-n2nc(C)cc2C)ncc1C [Compound 32],0,0,93,100,76,93,0,0,5.3,7.5,1.6,1.2,7.5,13.8,0.9,1.8,4,7,5.5,1.5,IC50 (Fusarium nivale): 2.3 µg/mL; IC50 (Penicillium digitatum): 0.6 µg/mL; IC50 (Phizoctonia solani): 2.4 µg/mL; IC50 (Cochliobolus miyabeanus [8]): 3.8 µg/mL; IC50 (Pyricularia oryzae [9]): 0.8 µg/mL
Cc1cc(Oc2ccc(Cl)cc2Cl)nc(-n2nc(C)cc2C)n1 [Compound 23],0,0,86,100,84,82,0,0,,,,,,,,,,,,,
Cc1ccc(C)c(Oc2cc(C)nc(-n3nc(C)cc3C)n2)c1 [Compound 28],0,0,98,100,100,100,0,0,,,,,,,,,,,,,
